In patent US9828379B2 (priority 2013, dated 2017):

Assays:
Assay in all cases: In vitro competitive activity-based protein profiling (Table 2, % inhibition at 1 μM)
Format in all cases: biochemical
ABHD6 = target: T1, ABHD6 (Mus musculus, UniProt Q8R2Y0); conditions: read-out: % Inhibition at 1 μM ABHD6
T1 sequence (Q8R2Y0 1-336): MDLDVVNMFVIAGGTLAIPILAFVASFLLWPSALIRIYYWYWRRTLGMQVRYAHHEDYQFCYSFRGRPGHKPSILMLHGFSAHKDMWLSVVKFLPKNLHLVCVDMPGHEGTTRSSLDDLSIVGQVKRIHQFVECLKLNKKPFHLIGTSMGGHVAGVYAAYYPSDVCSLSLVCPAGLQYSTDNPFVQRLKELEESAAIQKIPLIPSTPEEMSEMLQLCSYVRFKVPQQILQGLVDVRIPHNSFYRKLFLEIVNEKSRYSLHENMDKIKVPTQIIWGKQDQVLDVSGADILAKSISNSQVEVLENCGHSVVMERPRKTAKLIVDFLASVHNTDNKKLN
Experimental: (§1) After 30 min, FP—Rh (1.0 μL, 50 μM in DMSO) was added and the mixture was incubated for another 30 min at 37° C. Reactions were quenched with SDS loading buffer (50 μL-4×) and run on SDS-PAGE. Following gel imaging, serine hydrolase activity was determined by measuring fluorescent intensity of gel bands corresponding to MAGL, ABHD6 and FAAH using ImageJ 1.43 u software.
(§2) hMAGL was expressed in HEK293T cells according to previously reported methods (see Niphakis, Long, and Blankman, J. L., et al. (2007) Chem. Biol. 14:1347-1356). Cell lysates were diluted with mock proteomes for use in competitive ABPP experiments.

FAAH = target: T2, FAAH (Mus musculus, UniProt O08914); conditions: read-out: % Inhibition at 1 μM FAAH
T2 sequence (O08914 1-579): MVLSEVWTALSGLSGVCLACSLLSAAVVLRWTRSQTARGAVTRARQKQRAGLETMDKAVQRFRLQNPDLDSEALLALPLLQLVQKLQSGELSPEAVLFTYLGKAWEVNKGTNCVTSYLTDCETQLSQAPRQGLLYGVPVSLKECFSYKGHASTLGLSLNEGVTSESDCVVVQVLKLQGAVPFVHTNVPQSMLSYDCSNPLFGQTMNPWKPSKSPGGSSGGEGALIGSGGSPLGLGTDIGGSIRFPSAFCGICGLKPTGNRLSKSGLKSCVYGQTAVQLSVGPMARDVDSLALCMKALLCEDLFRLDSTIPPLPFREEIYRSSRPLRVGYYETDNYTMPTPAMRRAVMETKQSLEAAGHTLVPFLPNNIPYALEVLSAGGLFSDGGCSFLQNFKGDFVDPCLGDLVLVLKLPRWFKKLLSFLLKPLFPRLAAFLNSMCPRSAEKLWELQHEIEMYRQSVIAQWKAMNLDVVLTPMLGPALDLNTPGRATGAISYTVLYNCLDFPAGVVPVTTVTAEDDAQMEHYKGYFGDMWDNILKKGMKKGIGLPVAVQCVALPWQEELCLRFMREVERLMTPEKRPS
Experimental: as §1, §2

MAGL = target: T3, MAGL (Mus musculus, UniProt O35678); conditions: read-out: % Inhibition at 1 μM MAGL
T3 sequence (O35678 1-303): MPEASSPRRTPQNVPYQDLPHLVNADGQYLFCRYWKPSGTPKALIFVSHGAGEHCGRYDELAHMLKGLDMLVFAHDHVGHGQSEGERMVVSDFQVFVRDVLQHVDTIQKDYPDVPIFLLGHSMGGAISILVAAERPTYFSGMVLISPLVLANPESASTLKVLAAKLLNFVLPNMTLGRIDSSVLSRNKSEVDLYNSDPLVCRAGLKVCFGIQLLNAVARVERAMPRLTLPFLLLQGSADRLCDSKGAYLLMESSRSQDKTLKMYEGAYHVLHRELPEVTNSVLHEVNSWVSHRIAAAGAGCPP
Experimental: After 30 min, FP—Rh (1.0 μL, 50 μM in DMSO) was added and the mixture was incubated for another 30 min at 37° C. Reactions were quenched with SDS loading buffer (50 μL-4×) and run on SDS-PAGE.
Cell lysates were diluted with mock proteomes for use in competitive ABPP experiments.

## O=C(ON1C(=O)CCC1=O)N1CC2CN(Cc3ccc(C(=O)N4CCCC4)cc3Cl)CC2C1 (stereo not drawn) [Example 164, 2,5-dioxopyrrolidin-1-yl 5-(2-chloro-4-(pyrrolidine-1-carbonyl)benzyl)-hexahydropyrrolo[3,4-c]pyrrole-2(1H)-carboxylate]
ABHD6
  inhibition at 1 µM: 25 to 75%
FAAH
  inhibition at 1 µM: < 25%
MAGL
  inhibition at 1 µM: 25 to 75%

## O=C(OC(C(F)(F)F)C(F)(F)F)N1CC2CN(Cc3ccc(C(=O)N4CCOCC4)c(OC(F)(F)F)c3)CC2C1 (stereo not drawn) [Example 191, 1,1,1,3,3,3-hexafluoropropan-2-yl 5-(4-(morpholine-4-carbonyl)-3-(trifluoromethoxy)benzyl)hexahydropyrrolo[3,4-c]pyrrole-2(1H)-carboxylate]
ABHD6
  inhibition at 1 µM: < 25%
FAAH
  inhibition at 1 µM: < 25%
MAGL
  inhibition at 1 µM: < 25%

## Cc1cccc(CN2CC3CN(C(=O)ON4C(=O)CCC4=O)CC3C2)c1N1CCN(C)CC1 (stereo not drawn) [Example 138, 2,5-dioxopyrrolidin-1-yl 5-[[3-methyl-2-(4-methylpiperazin-1-yl)phenyl]methyl]-octahydropyrrolo[3,4-c]pyrrole-2-carboxylate]
ABHD6
  inhibition at 1 µM: < 25%
FAAH
  inhibition at 1 µM: < 25%
MAGL
  inhibition at 1 µM: < 25%

## CC(C)n1cc(CN2CC3CN(C(=O)ON4C(=O)CCC4=O)CC3C2)c(-c2ccccc2Cl)n1 (stereo not drawn) [Example 118, 2,5-Dioxopyrrolidin-1-yl 5-[[3-(2-chlorophenyl)-1-(propan-2-yl)-1H-pyrazol-4-yl]methyl]-octahydropyrrolo[3,4-c]pyrrole-2-carboxylate]
ABHD6
  inhibition at 1 µM: 25 to 75%
FAAH
  inhibition at 1 µM: < 25%
MAGL
  inhibition at 1 µM: 25 to 75%

## CC(=O)N1CCN(c2cc(Cl)ccc2CN2CC3CN(C(=O)ON4C(=O)CCC4=O)CC3C2)CC1 (stereo not drawn) [Example 96, 2,5-Dioxopyrrolidin-1-yl 5-[[2-(4-acetylpiperazin-1-yl)-4-chlorophenyl]methyl]-octahydropyrrolo[3,4-c]pyrrole-2-carboxylate]
ABHD6
  inhibition at 1 µM: < 25%
FAAH
  inhibition at 1 µM: < 25%
MAGL
  inhibition at 1 µM: < 25%

## Cc1c(CN2CC3CN(C(=O)ON4C(=O)CCC4=O)CC3C2)cccc1N1CCN(C)CC1 (stereo not drawn) [Example 145]
ABHD6
  inhibition at 1 µM: < 25%
FAAH
  inhibition at 1 µM: < 25%
MAGL
  inhibition at 1 µM: < 25%

## CC1COCCN1c1cc(F)ccc1CN1CC2CN(C(=O)ON3C(=O)CCC3=O)CC2C1 (stereo not drawn) [Example 91, 2,5-Dioxopyrrolidin-1-yl 5-[[4-fluoro-2-(3-methylmorpholin-4-yl)phenyl]methyl]-octahydropyrrolo[3,4-c]pyrrole-2-carboxylate]
ABHD6
  inhibition at 1 µM: < 25%
FAAH
  inhibition at 1 µM: < 25%
MAGL
  inhibition at 1 µM: < 25%

## CC1COCCN1c1ccc(CN2CC3CN(C(=O)ON4C(=O)CCC4=O)CC3C2)c(F)c1 (stereo not drawn) [Example 100, 2,5-Dioxopyrrolidin-1-yl 5-[[2-fluoro-4-(3-methylmorpholin-4-yl)phenyl]methyl]-octahydropyrrolo[3,4-c]pyrrole-2-carboxylate]
ABHD6
  inhibition at 1 µM: < 25%
FAAH
  inhibition at 1 µM: < 25%
MAGL
  inhibition at 1 µM: 25 to 75%

## CC(=O)N1CCN(c2ccc(CN3CC4CN(C(=O)ON5C(=O)CCC5=O)CC4C3)c(Cl)c2)CC1 (stereo not drawn) [Example 103, 2,5-Dioxopyrrolidin-1-yl 5-[[4-(4-acetylpiperazin-1-yl)-2-chlorophenyl]methyl]-octahydropyrrolo[3,4-c]pyrrole-2-carboxylate]
ABHD6
  inhibition at 1 µM: < 25%
FAAH
  inhibition at 1 µM: < 25%
MAGL
  inhibition at 1 µM: < 25%

## CC(=O)N1CCC(c2nn(C)cc2CN2CC3CN(C(=O)ON4C(=O)CCC4=O)CC3C2)CC1 (stereo not drawn) [Example 116, 2,5-Dioxopyrrolidin-1-yl 5-[[3-(1-acetylpiperidin-4-yl)-1-methyl-1H-pyrazol-4-yl]methyl]-octahydropyrrolo[3,4-c]pyrrole-2-carboxylate]
ABHD6
  inhibition at 1 µM: < 25%
FAAH
  inhibition at 1 µM: < 25%
MAGL
  inhibition at 1 µM: < 25%

## Cn1nc(-c2ccccc2)cc1CN1CC2CN(C(=O)ON3C(=O)CCC3=O)CC2C1 (stereo not drawn) [Example 197, 2,5-dioxopyrrolidin-1-yl 5-((1-methyl-3-phenyl-1H-pyrazol-5-yl)methyl)hexahydropyrrolo[3,4-c]pyrrole-2(1H)-carboxylate]
ABHD6
  inhibition at 1 µM: < 25%
FAAH
  inhibition at 1 µM: < 25%
MAGL
  inhibition at 1 µM: < 25%

## CC(C)c1ccc(CN2CC3CN(C(=O)ON4C(=O)CCC4=O)CC3C2)c(N2CCOCC2)c1 (stereo not drawn) [Example 97, 2,5-Dioxopyrrolidin-1-yl 5-[[2-(morpholin-4-yl)-4-(propan-2-yl)phenyl]methyl]-octahydropyrrolo[3,4-c]pyrrole-2-carboxylate]
ABHD6
  inhibition at 1 µM: < 25%
FAAH
  inhibition at 1 µM: < 25%
MAGL
  inhibition at 1 µM: < 25%

## O=C(ON1C(=O)CCC1=O)N1CC2CN(Cc3ccc(Cl)cc3N3CCC4(CCNC4=O)CC3)CC2C1 (stereo not drawn) [Example 112, 2,5-Dioxopyrrolidin-1-yl 5-[(4-chloro-2-[1-oxo-2,8-diazaspiro[4.5]decan-8-yl]phenyl)methyl]-octahydropyrrolo[3,4-c]pyrrole-2-carboxylate]
ABHD6
  inhibition at 1 µM: < 25%
FAAH
  inhibition at 1 µM: < 25%
MAGL
  inhibition at 1 µM: 25 to 75%

## CC(C)c1cc(CN2CC3CN(C(=O)ON4C(=O)CCC4=O)CC3C2)n(C2CCCCC2)n1 (stereo not drawn) [Example 123, 2,5-Dioxopyrrolidin-1-yl 5-[[1-cyclohexyl-3-(propan-2-yl)-1H-pyrazol-5-yl]methyl]-octahydropyrrolo[3,4-c]pyrrole-2-carboxylate]
ABHD6
  inhibition at 1 µM: > 75%
FAAH
  inhibition at 1 µM: < 25%
MAGL
  inhibition at 1 µM: 25 to 75%

## CCn1cc(CN2CC3CN(C(=O)OC(C(F)(F)F)C(F)(F)F)CC3C2)c(C(=O)N2CCOCC2)n1 (stereo not drawn) [Example 76, 1,1,1,3,3,3-Hexafluoropropan-2-yl 5-((1-ethyl-3-(morpholine-4-carbonyl)-1H-pyrazol-4-yl)methyl)hexahydropyrrolo[3,4-c]pyrrole-2(1H)-carboxylate]
ABHD6
  inhibition at 1 µM: < 25%
FAAH
  inhibition at 1 µM: < 25%
MAGL
  inhibition at 1 µM: 25 to 75%

## CCN1CCN(c2cccc(CN3CC4CN(C(=O)ON5C(=O)CCC5=O)CC4C3)c2C)CC1 (stereo not drawn) [Example 146]
ABHD6
  inhibition at 1 µM: < 25%
FAAH
  inhibition at 1 µM: < 25%
MAGL
  inhibition at 1 µM: 25 to 75%

## CS(=O)(=O)N1CCN(c2cc(Cl)ccc2CN2CC3CN(C(=O)ON4C(=O)CCC4=O)CC3C2)CC1 (stereo not drawn) [Example 110, 2,5-Dioxopyrrolidin-1-yl 5-[[4-chloro-2-(4-methanesulfonylpiperazin-1-yl)phenyl]methyl]-octahydropyrrolo[3,4-c]pyrrole-2-carboxylate]
ABHD6
  inhibition at 1 µM: < 25%
FAAH
  inhibition at 1 µM: < 25%
MAGL
  inhibition at 1 µM: < 25%

## CC(=O)N1CCC(c2nn(C)cc2CN2CC3CN(C(=O)OC(C(F)(F)F)C(F)(F)F)CC3C2)CC1 (stereo not drawn) [Example 52, 1,1,1,3,3,3-Hexafluoropropan-2-yl 5-[[3-(1-acetylpiperidin-4-yl)-1-methyl-1H-pyrazol-4-yl]methyl]-octahydropyrrolo[3,4-c]pyrrole-2-carboxylate]
ABHD6
  inhibition at 1 µM: < 25%
FAAH
  inhibition at 1 µM: < 25%
MAGL
  inhibition at 1 µM: 25 to 75%

## Cc1cc(CN2CC3CN(C(=O)ON4C(=O)CCC4=O)CC3C2)n(C(C)C)n1 (stereo not drawn) [Example 121, 2,5-Dioxopyrrolidin-1-yl 5-[[3-methyl-1-(propan-2-yl)-1H-pyrazol-5-yl]methyl]-octahydropyrrolo[3,4-c]pyrrole-2-carboxylate]
ABHD6
  inhibition at 1 µM: < 25%
FAAH
  inhibition at 1 µM: < 25%
MAGL
  inhibition at 1 µM: < 25%
